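48-hour exposure; five concentrations; linearly interpolated endpoints. Abbreviation: GI50, concentration required for 50% inhibition of growth.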 Activity calls are given as the source filed them. Cut-off read from the data, not from the text of the source: active = GI50 up to about 1.1 µM and inactive = higher.

The values that follow come from ChEMBL document CHEMBL1201862, “PubChem BioAssay data set” (2004).

Some test systems named below: A498; BT-549; CAKI-1; HCT-116; KM12; M14; MCF7; MDA-MB-435; MDA-N; NCI-H23; NCI-H522; OVCAR-5; OVCAR-8; RPMI-8226; SF-539; SK-OV-3; SN12C; SNB-19; UACC-62.
Assay in all cases: NCI anticancer screen, dose series, 48 h

For `ClCC[N+]12CC[N+](CCCl)(CC1)C2`, the GI50 in the test on A498 was > 100 µM (inactive); in the test on BT-549 it was > 100 µM (inactive); in the test with CAKI-1, > 75.5 µM (inactive); in the test with HCT-116 it was > 100 µM (inactive); with KM12, > 100 µM (inactive); in the test on M14 it was > 100 µM (inactive). Besides, the GI50 with MCF7, in the test with MDA-MB-435, in the test with MDA-N, with NCI-H23, in the test with NCI-H522 and with OVCAR-5 was > 100 µM (inactive) each time. For the same molecule, the GI50 in the test with OVCAR-8, in the test on RPMI-8226, in the test with SF-539, in the test on SK-OV-3, with SN12C and in the test on SNB-19 was > 100 µM (inactive) in each case. For the same molecule, the GI50 with UACC-62 is > 100 µM (inactive).

Turning to `CNC(=O)/C=C/C1=CN2C(=O)c3ccc(C)c(O)c3NC(OC)C2C1` (stereo not given), the GI50 in the test on A498 is 0.0533 µM (active); with BT-549, < 0.01 µM (active); with CAKI-1, < 0.0166 µM (active); in the test on HCT-116, < 0.0148 µM (active); with KM12, < 0.0139 µM (active); with M14, < 0.0124 µM (active). The GI50 was < 0.0163 µM (active) in the test with MCF7; < 0.0133 µM (active) in the test on MDA-MB-435; < 0.0127 µM (active) in the test on MDA-N; < 0.0134 µM (active) in the test on NCI-H23; < 0.0128 µM (active) in the test on NCI-H522; 0.0244 µM (active) in the test on OVCAR-5. Further, the GI50 with OVCAR-8 is < 0.0141 µM (active); in the test on RPMI-8226, 0.0234 µM (active); in the test on SF-539 it was < 0.0135 µM (active); in the test with SK-OV-3 it was < 0.0206 µM (active); with SN12C, < 0.01 µM (active); in the test on SNB-19, < 0.0152 µM (active). The GI50 in the test with UACC-62 is < 0.0124 µM (active).

Turning to `CC(C)Oc1c(-c2c(OC(C)C)c(=O)c2=O)c(=O)c1=O`, the GI50 with A498 was > 100 µM (inactive); with BT-549, > 48 µM (inactive); in the test with CAKI-1 it was > 100 µM (inactive); in the test with HCT-116, > 32.4 µM (inactive); in the test with KM12 it was > 36.5 µM (inactive); with M14, > 100 µM (inactive). The GI50 is > 20.2 µM (inactive) with MCF7; > 30.2 µM (inactive) with MDA-MB-435; > 29 µM (inactive) with MDA-N; > 52.8 µM (inactive) in the test on NCI-H23; > 20.1 µM (inactive) with NCI-H522; > 100 µM (inactive) in the test with OVCAR-5. Moreover, the GI50 with OVCAR-8 is > 34.7 µM (inactive); in the test with RPMI-8226 it was 29.9 µM (inactive); in the test on SF-539 it was > 65.8 µM (inactive); in the test with SK-OV-3, > 100 µM (inactive); with SN12C it was > 49.2 µM (inactive); in the test with SNB-19 it was > 69 µM (inactive). In addition, the GI50 in the test on UACC-62 is > 40 µM (inactive).

With `O=C(c1ccccc1)c1c(-c2ccccc2)n(-c2ccccc2)[nH]c(=O)c1=O`, the GI50 in the test with A498 is > 100 µM (inactive); with BT-549, 13.7 µM (inactive); in the test with CAKI-1, 37.6 µM (inactive); in the test on HCT-116, > 100 µM (inactive); in the test with KM12, 54.3 µM (inactive); in the test on M14, > 100 µM (inactive). Besides, the GI50 in the test on MCF7 was 46.7 µM (inactive); with MDA-MB-435, 28.2 µM (inactive); in the test on MDA-N, 50.1 µM (inactive); with NCI-H23 it was 75 µM (inactive); in the test on NCI-H522, 0.361 µM (active); with OVCAR-5 it was > 100 µM (inactive). The GI50 in the test with OVCAR-8 is 46 µM (inactive); in the test with RPMI-8226, 27.5 µM (inactive); with SF-539 it was 20.2 µM (inactive); in the test with SK-OV-3, 34.2 µM (inactive); with SN12C, 69 µM (inactive); in the test with SNB-19 it was 88.3 µM (inactive). Further, in the test with UACC-62, the GI50 was 12.3 µM (inactive).

As for `Cc1ccc([N+](=O)[O-])cc1S(=O)(=O)Nc1ccc(C2=NOC(c3ccccc3)C2)cc1` (stereo not given), the GI50 in the test with A498 is 4.03 µM (inactive); in the test on BT-549 it was 12.4 µM (inactive); in the test with CAKI-1 it was 7.1 µM (inactive); with HCT-116 it was 7.08 µM (inactive); in the test with KM12, 3.57 µM (inactive); in the test on M14, 4.11 µM (inactive). Also, the GI50 was 3.25 µM (inactive) in the test on MCF7; 1.5 µM (inactive) with MDA-MB-435; 1.99 µM (inactive) in the test on MDA-N; 14.5 µM (inactive) in the test with NCI-H23; 3.27 µM (inactive) in the test on NCI-H522; 25.4 µM (inactive) with OVCAR-5. The GI50 was 18.3 µM (inactive) in the test on OVCAR-8; 4.7 µM (inactive) in the test with RPMI-8226; 9.77 µM (inactive) with SF-539; 11.5 µM (inactive) with SK-OV-3; 12.9 µM (inactive) in the test with SN12C; 10.1 µM (inactive) in the test on SNB-19. The GI50 in the test with UACC-62 was 3.85 µM (inactive).

Regarding `Cc1ccc(NC(=O)CC(=O)n2nc(C)c(/N=N/c3cccc(C)c3)c2C)cc1`, the GI50 in the test on A498, with BT-549, with CAKI-1, in the test with HCT-116, in the test on KM12 and in the test on M14 was > 100 µM (inactive) in each case. Also, the GI50 in the test on MCF7, in the test on MDA-MB-435, in the test on MDA-N, in the test on NCI-H23, in the test with NCI-H522 and in the test with OVCAR-5 was > 100 µM (inactive) in each case. The GI50 with OVCAR-8 is > 100 µM (inactive); in the test on RPMI-8226, > 100 µM (inactive); in the test on SF-539 it was > 100 µM (inactive); in the test on SK-OV-3, > 100 µM (inactive); with SN12C, > 100 µM (inactive); in the test on SNB-19, 71.1 µM (inactive). Further, the GI50 in the test on UACC-62 is > 100 µM (inactive).

`CC(C)/C=N\n1c(N)c(C#N)c(C#N)c1C(C)C`: the GI50 is 17.5 µM (inactive) with A498; 24.2 µM (inactive) with BT-549; 20.5 µM (inactive) in the test with CAKI-1; 24.5 µM (inactive) with HCT-116; 27 µM (inactive) in the test on KM12; 22.2 µM (inactive) in the test on M14. Further, the GI50 was 38.5 µM (inactive) with MCF7; 31.3 µM (inactive) in the test with MDA-MB-435; 18.6 µM (inactive) in the test on MDA-N; 24 µM (inactive) in the test with NCI-H23; 19.3 µM (inactive) with NCI-H522; 21.7 µM (inactive) in the test on OVCAR-5. In addition, the GI50 in the test on OVCAR-8 was 20.3 µM (inactive); in the test on RPMI-8226, 14.6 µM (inactive); in the test on SF-539 it was 18.9 µM (inactive); in the test on SK-OV-3, 45.1 µM (inactive); in the test on SN12C, 28.6 µM (inactive); with SNB-19, 34.9 µM (inactive). Further, the GI50 in the test with UACC-62 was 12.3 µM (inactive).

On to `Oc1c(O)c(Cc2ccccc2)c(Cc2ccccc2)c(Cc2ccccc2)c1Cc1ccccc1`, for which the GI50 in the test on A498, in the test with BT-549, in the test on CAKI-1, in the test on HCT-116, in the test on KM12 and in the test on M14 was > 10 µM (inactive) in each case. Besides, the GI50 in the test with MCF7, with MDA-MB-435, in the test on MDA-N, in the test with NCI-H23, with NCI-H522 and with OVCAR-5 was > 10 µM (inactive) each time. Further, the GI50 in the test with OVCAR-8, with RPMI-8226, in the test on SF-539, in the test with SK-OV-3, with SN12C and with SNB-19 was > 10 µM (inactive) each time. The GI50 in the test with UACC-62 is > 10 µM (inactive).

Turning to `COc1ccc2c(c1)C1OCCNC1CC2` (stereo not given), the GI50 with A498 was 40.6 µM (inactive); in the test on BT-549, > 100 µM (inactive); in the test on CAKI-1, > 100 µM (inactive); in the test with HCT-116, > 100 µM (inactive); in the test on KM12, > 100 µM (inactive); in the test on M14 it was > 100 µM (inactive). The GI50 in the test on MCF7, with MDA-MB-435, with MDA-N, with NCI-H23, with NCI-H522 and with OVCAR-5 was > 100 µM (inactive) in each case. The GI50 in the test on OVCAR-8, with RPMI-8226, in the test with SF-539, with SK-OV-3, with SN12C and in the test on SNB-19 was > 100 µM (inactive) in each case. Further, in the test with UACC-62, the GI50 is > 100 µM (inactive).

Take `CSc1ccc(-c2cc(-c3nc4ccccc4[nH]3)no2)cc1`: the GI50 with A498 was 30.8 µM (inactive); in the test on BT-549 it was 19.6 µM (inactive); in the test with CAKI-1 it was 23.6 µM (inactive); in the test on HCT-116 it was 32.5 µM (inactive); in the test with KM12, 9.91 µM (inactive); in the test with M14, 20.4 µM (inactive). Further, the GI50 with MCF7 is 9.02 µM (inactive); in the test with MDA-MB-435 it was 18.5 µM (inactive); in the test with MDA-N, 26.9 µM (inactive); with NCI-H23, 19.1 µM (inactive); in the test with NCI-H522, 20.3 µM (inactive); with OVCAR-5, > 100 µM (inactive). The GI50 with OVCAR-8 is 35 µM (inactive); in the test on RPMI-8226 it was 24.4 µM (inactive); with SF-539, 24.7 µM (inactive); in the test with SK-OV-3, 70.5 µM (inactive); in the test on SN12C, 50.2 µM (inactive); in the test on SNB-19, 40.3 µM (inactive). In the test on UACC-62, the GI50 was 16.4 µM (inactive).
